Like-named read-outs stand apart in the source and are kept apart here.
Experiments:
Assay type in all cases: binding
[1] = target: T1, HeLa cell extract proteins (Homo sapiens, UniProt O60547)
T1 construct: endogenous in cells; host or cells: HeLa cell extract
T1 sequence (O60547 1-372): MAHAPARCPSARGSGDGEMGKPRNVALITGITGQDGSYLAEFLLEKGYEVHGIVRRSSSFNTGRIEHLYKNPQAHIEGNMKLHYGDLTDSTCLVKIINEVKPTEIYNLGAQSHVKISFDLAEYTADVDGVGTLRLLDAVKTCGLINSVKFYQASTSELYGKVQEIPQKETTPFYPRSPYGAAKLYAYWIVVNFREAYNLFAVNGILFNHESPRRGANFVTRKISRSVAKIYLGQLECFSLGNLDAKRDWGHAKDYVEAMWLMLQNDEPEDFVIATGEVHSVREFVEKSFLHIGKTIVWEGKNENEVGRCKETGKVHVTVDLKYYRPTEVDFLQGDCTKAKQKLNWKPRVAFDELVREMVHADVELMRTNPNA

[2] = target: T2, HeLa cell extract proteins (Homo sapiens, UniProt P25789)
T2 construct: endogenous in cells; host or cells: HeLa cell extract
T2 sequence (P25789 1-261): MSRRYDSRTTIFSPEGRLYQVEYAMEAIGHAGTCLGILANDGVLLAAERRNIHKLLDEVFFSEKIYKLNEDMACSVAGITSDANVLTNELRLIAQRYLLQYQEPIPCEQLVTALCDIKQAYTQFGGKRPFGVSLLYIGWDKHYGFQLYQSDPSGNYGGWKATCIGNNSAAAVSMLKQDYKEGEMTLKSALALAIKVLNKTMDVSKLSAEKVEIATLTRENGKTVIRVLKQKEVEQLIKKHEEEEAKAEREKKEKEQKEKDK

[3] = target: T3, HeLa cell extract proteins (Homo sapiens, UniProt P36639)
T3 construct: endogenous in cells; host or cells: HeLa cell extract

[4] = target: T4, HeLa cell extract proteins (Homo sapiens, UniProt P47897)
T4 construct: endogenous in cells; host or cells: HeLa cell extract
T4 sequence (P47897 1-775): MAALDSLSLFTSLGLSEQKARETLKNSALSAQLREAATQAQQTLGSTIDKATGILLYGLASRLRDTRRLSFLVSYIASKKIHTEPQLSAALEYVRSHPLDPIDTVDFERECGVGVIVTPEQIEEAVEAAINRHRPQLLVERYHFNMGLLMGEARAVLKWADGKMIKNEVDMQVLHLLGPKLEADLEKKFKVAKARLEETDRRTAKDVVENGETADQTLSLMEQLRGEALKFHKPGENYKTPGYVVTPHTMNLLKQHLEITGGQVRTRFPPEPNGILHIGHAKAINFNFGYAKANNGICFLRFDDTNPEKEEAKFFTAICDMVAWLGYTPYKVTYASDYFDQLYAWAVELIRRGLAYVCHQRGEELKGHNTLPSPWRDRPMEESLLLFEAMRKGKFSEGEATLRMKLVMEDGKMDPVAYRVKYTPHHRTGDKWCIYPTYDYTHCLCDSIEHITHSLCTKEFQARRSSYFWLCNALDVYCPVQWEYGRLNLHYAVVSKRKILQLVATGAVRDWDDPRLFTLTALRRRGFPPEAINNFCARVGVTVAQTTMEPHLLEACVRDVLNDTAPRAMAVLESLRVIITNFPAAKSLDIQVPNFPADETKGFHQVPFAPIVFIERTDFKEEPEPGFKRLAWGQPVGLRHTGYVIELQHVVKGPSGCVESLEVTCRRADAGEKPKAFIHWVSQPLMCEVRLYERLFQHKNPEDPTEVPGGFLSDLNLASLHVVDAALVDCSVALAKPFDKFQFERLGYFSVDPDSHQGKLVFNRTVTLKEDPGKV

[5] = target: T5, HeLa cell extract proteins (Homo sapiens, UniProt P52907)
T5 construct: endogenous in cells; host or cells: HeLa cell extract

[6] = target: T6, HeLa cell extract proteins (Homo sapiens, UniProt Q13126)
T6 construct: endogenous in cells; host or cells: HeLa cell extract
T6 sequence (Q13126 1-283): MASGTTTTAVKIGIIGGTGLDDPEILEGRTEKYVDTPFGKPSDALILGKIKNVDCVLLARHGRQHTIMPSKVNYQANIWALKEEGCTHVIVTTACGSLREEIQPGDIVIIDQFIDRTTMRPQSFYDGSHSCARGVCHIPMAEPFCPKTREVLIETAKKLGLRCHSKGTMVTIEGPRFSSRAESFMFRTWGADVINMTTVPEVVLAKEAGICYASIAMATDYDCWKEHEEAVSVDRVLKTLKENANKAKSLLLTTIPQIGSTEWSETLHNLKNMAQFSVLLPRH

[7] = target: T7, HeLa cell extract proteins (Homo sapiens, UniProt Q14258)
T7 construct: endogenous in cells; host or cells: HeLa cell extract
T7 sequence (Q14258 whole entry): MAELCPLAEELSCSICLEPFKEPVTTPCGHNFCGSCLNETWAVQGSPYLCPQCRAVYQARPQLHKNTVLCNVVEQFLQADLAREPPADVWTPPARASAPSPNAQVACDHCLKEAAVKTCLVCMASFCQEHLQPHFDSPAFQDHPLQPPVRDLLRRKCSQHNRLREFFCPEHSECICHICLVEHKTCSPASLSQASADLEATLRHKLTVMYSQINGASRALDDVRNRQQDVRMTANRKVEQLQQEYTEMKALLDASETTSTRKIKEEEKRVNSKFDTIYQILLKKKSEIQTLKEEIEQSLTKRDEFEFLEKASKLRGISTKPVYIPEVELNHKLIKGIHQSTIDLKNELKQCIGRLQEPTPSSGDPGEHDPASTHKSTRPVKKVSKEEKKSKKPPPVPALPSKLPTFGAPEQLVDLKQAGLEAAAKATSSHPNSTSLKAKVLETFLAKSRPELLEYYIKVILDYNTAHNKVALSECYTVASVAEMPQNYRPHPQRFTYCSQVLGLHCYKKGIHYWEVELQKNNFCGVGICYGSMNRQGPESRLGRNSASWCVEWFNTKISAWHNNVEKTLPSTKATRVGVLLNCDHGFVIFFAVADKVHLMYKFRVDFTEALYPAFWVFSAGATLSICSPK

[8] = target: T8, HeLa cell extract proteins (Homo sapiens, UniProt Q8NBE8)
T8 construct: endogenous in cells; host or cells: HeLa cell extract
T8 sequence (Q8NBE8 1-558): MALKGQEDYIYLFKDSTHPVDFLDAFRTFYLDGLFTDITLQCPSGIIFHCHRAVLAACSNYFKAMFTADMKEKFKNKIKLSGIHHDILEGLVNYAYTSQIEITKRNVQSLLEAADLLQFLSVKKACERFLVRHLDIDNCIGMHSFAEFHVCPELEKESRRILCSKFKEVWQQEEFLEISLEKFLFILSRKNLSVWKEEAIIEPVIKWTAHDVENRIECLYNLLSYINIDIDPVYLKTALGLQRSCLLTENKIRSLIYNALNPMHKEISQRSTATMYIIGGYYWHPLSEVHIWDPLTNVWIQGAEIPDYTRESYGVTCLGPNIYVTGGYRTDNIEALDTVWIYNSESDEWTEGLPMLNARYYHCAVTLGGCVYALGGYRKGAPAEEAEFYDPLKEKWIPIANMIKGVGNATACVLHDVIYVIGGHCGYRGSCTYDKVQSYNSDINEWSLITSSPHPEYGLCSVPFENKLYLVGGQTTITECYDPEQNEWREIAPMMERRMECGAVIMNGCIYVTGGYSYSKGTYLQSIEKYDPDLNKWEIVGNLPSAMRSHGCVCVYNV

[9] = target: T9, HeLa cell extract proteins (Homo sapiens, UniProt Q8WWC4)
T9 construct: endogenous in cells; host or cells: HeLa cell extract
T9 sequence (Q8WWC4 97-291): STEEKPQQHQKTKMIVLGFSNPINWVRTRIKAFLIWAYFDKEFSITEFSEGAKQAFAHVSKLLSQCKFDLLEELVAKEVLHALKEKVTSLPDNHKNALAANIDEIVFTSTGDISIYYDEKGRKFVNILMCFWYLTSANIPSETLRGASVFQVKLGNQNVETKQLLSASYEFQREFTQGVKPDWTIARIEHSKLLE

Row | Compound | fold changes relative to vehicle control ([1]; HeLa, captured protein GMDS) | fold changes relative to vehicle control ([2]; HeLa, captured protein PSMA4) | fold changes relative to vehicle control ([3]; protein NUDT1, HeLa) | fold changes relative to vehicle control ([4]; HeLa, captured protein QARS) | fold changes relative to vehicle control ([5]; HeLa, protein CAPZA1) | fold changes relative to vehicle control ([6]; HeLa, captured protein MTAP) | fold changes relative to vehicle control ([7]; HeLa, captured protein TRIM25) | fold changes relative to vehicle control ([8]; HeLa, protein KLHL23) | fold changes relative to vehicle control ([9]; protein C2ORF47, HeLa) | fold changes relative to vehicle control ([1]; HeLa, protein GMDS) | fold changes relative to vehicle control ([2]; protein PSMA4, HeLa) | fold changes relative to vehicle control ([3]; captured protein NUDT1, HeLa) | fold changes relative to vehicle control ([4]; HeLa, protein QARS) | fold changes relative to vehicle control ([5]; protein CAPZA1, HeLa) | fold changes relative to vehicle control ([6]; protein MTAP, HeLa) | fold changes relative to vehicle control ([7]; HeLa, protein TRIM25) | fold changes relative to vehicle control ([8]; protein KLHL23, HeLa) | fold changes relative to vehicle control ([9]; HeLa, protein C2ORF47) | also measured
1 | Nc1nc2c(c(=O)[nH]1)N(C=O)C(CNc1ccc(C(=O)N[C@@H](CCC(=O)O)C(=O)O)cc1)CN2 (stereo partly drawn) [LEU, leucovorin] | 1 | 1.05 | 1.19 | 0.97 | 0.89 | 1.13 | 0.98 | 0.91 | 0.93 | – | – | – | – | – | – | – | – | – | –
2 | Nc1nc2[nH]cc(CCc3ccc(C(=O)N[C@@H](CCC(=O)O)C(=O)O)cc3)c2c(=O)[nH]1 [PTX, pemetrexed] | – | – | – | – | – | – | – | – | – | – | – | – | – | – | – | – | – | – | fold changes relative to vehicle control [1]: 1; fold changes relative to vehicle control [2]: 1.02; fold changes relative to vehicle control [3]: 0.36; fold changes relative to vehicle control [4]: 0.9; fold changes relative to vehicle control [5]: 1.02; fold changes relative to vehicle control [6]: 0.98; fold changes relative to vehicle control [7]: 0.87; fold changes relative to vehicle control [8]: 0.8; fold changes relative to vehicle control [9]: 0.92
3 | CCCCCCOc1ccc(Cc2cnc(N)nc2N)cc1 [compound 1] | – | – | – | – | – | – | – | – | – | 1.06 | 1.1 | 1.02 | 0.99 | 1.13 | 0.9 | 0.9 | 0.87 | 1.1 | –
4 | CCCCCCOc1cccc(Cc2cnc(N)nc2N)c1 [compound 2] | – | – | – | – | – | – | – | – | – | 1.21 | 1.19 | 0.11 | 1.16 | 1.32 | 0.78 | 1.07 | 0.94 | 1.06 | –
5 | Nc1nc2cccc(-c3ccccc3)c2n1Cc1ccc(Cl)c(Cl)c1 [compound 3] | – | – | – | – | – | – | – | – | – | 1.25 | 1.06 | 0.62 | 1.01 | 1.15 | 0.99 | 0.97 | 0.92 | 1.11 | –
6 | NCCOCCOCC(=O)Nc1nc2ncc(CNc3ccc(C(=O)NC(CCC(=O)O)C(=O)O)cc3)nc2c(=O)[nH]1 (stereo not drawn) [compound 6] | 0.98 | 1.06 | 1.16 | 0.95 | 1.11 | 0.95 | 0.98 | 0.8 | 0.99 | – | – | – | – | – | – | – | – | – | –
7 | NCCCNc1ccc(C(=O)NC(CCC(=O)O)C(=O)O)cc1 (stereo not drawn) [compound 7] | 1.12 | 1.03 | 1.2 | 0.92 | 1.09 | 1.01 | 0.94 | 0.83 | 1.06 | – | – | – | – | – | – | – | – | – | –

Source: PMC6199744, “Development of Chemical Proteomics for the Folateome and Analysis of the Kinetoplastid Folateome” (ACS Infectious Diseases, 2018)
